Patent publication US20150307850A1, “CONDITIONAL REPLICATING VIRAL VECTORS” (priority 2012, published 2015)

How the values were obtained:
FKBP = FKBP (Homo sapiens, UniProt P62942, F37V); details: F36V FKBP derivative vs wild-type FKBP; cited from earlier work
ARPE-19 cells = assay: Shield-1 concentration dependent progeny virus production (TCID50 assay); type: cell-based, human; details: FKBP derivative fused to UL51 or UL52
Protocol: FKBP fusion proteins used in this study comprise an essential protein (IE1/2, UL51, UL52, UL79, UL84, UL87, IE1/2-UL51) fused to an FKBP derivative (ddIE1/2, ddUL51, ddUL52, ddUL79, ddUL84, ddUL87, and ddIE1/2-UL51). ARPE-19 cells were infected with the various rdCMV viruses comprising the noted fusion proteins, at a multiplicity of 0.01 PFU/cell for 1 hour, washed twice with fresh medium, and incubated in the growth medium containing 0, 0.05, 0.1 0.5 or 2 μM of Shield-1. Seven days post infection, the cell free virus was collected, and virus titers were determined by TCID50 assay on ARPE-19 cells in the presence of 2 μM of Shield 1.
Varying concentrations of Shld-1 were used in additional experiments to further assess viral replication in the presence or absence of Shld-1. ARPE-19 cells were infected by the gH expressing CMV that also contained a FKBP derivative fused to an essential protein at MOI of […]. After infection for 1 hour, the cells were washed twice with fresh medium to remove Shld-1. […] Virus titers were determined by a 50% Tissue Culture Infective Dose (TCID50) assay. Briefly, this dilution assay quantifies the amount of virus required to kill 50% of infected hosts. […] After incubation, the percentage of cell death (i.e. infected cells) was manually observed and recorded for each virus dilution. […]

Chain of FKBP (P62942 2-108 F37V limits assumed): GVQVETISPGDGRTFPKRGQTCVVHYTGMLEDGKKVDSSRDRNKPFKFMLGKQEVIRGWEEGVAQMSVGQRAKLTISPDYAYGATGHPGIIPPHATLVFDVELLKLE

CC[C@H](C(=O)N1CCCC[C@H]1C(=O)O[C@H](CCc1ccc(OC)c(OC)c1)c1cccc(OCCN2CCOCC2)c1)c1cc(OC)c(OC)c(OC)c1 [Shield-1]
Binding to the F36V derivative compared to wild-type FKBP (tighter) (FKBP): about 1,000 fold | Shield-1 concentration that can effectively turn on or off viral replication (ARPE-19 cells): 50 nM
